The values below come from US20080090805A1, “CB-1 MODULATING COMPOUNDS AND THEIR USE” (ACADIA PHARMACEUTICALS INC., priority 2005, published 2008).

This assay relates to NSA mice. Description: Hypothermia study (block of CP 55,940-induced hypothermia). It is filed as in vivo. Also on record: Hypothermia 3 mg/kg / Hypothermia 0.3 mg/kg: unit not given here. The conditions noted are these: for Hypothermia ID50: block of CP 55,940-induced hypothermia. As for the experimental part:
. […] Core body temperatures were then obtained at various time points following CP 55,940 administration. Core body temperature (to the nearest 0.1° C.) was obtained by rectal probe.

For the compound `Cc1ccsc1C1=Nc2cc(C(=O)NCc3ccco3)ccc2Sc2ccccc21` [drawing 1639], the “Hypothermia 3 mg/kg” value came to 30.
Take `O=C(NCc1ccc(F)cc1)c1ccc2c(c1)N=C(c1ccc(Cl)cc1)c1ccccc1S2` [drawing 1630]: the “Hypothermia 0.3 mg/kg” value came out at 18, the “Hypothermia 3 mg/kg” value worked out at 83 and the Hypothermia ID50 was determined as 1.8 mg/kg.
With `CCCCNC(=O)c1ccc2c(c1)N=C(c1ccc(Cl)cc1)c1ccccc1[S+]2[O-]` (centres unmarked) [drawing 1619], the “Hypothermia 3 mg/kg” value is 31.
On to `COc1ccc(C2=Nc3cc(C(=O)NCC(C)C)ccc3Sc3ccccc32)cc1` [drawing 1599], for which the “Hypothermia 3 mg/kg” value is 71.
Consider `O=C(NC1CCCCC1)c1ccc2c(c1)N=C(c1cccc(Cl)c1)c1ccccc1S2` [drawing 1574], for which the “Hypothermia 3 mg/kg” value is on record as 74.
Same read-out and setting: the same measure for `O=C(NCc1cccc(Cl)c1)c1ccc2c(c1)N=C(c1ccc(Cl)cc1)c1ccccc1S2` [drawing 1614]: −16; for `O=C(NCc1ccccc1)c1ccc2c(c1)N=C(c1cccc(Cl)c1)c1ccccc1S2` [drawing 1638]: 27.
For `O=C(NCc1ccco1)c1ccc2c(c1)N=C(c1ccc(Cl)cc1)c1ccccc1S2` [drawing 1650], the “Hypothermia 0.3 mg/kg” value was 28, the “Hypothermia 3 mg/kg” value was found to be 79 and the Hypothermia ID50 came out at 0.9 mg/kg.
For `CCCNC(=O)c1ccc2c(c1)N=C(c1ccc(Cl)cc1)c1ccccc1S2` [drawing 1588], the “Hypothermia 0.3 mg/kg” value is recorded as 29 and the “Hypothermia 3 mg/kg” value stood at 54.
In the case of `O=C(NC1CCC(F)(F)CC1)c1ccc2c(c1)N=C(c1ccc(Cl)s1)c1ccccc1S2` [drawing 1596], the “Hypothermia 3 mg/kg” value is given as 51.
Consider `O=C(NCc1cccnc1)c1ccc2c(c1)N=C(c1cccc(Br)c1)c1ccccc1S2` [drawing 1641], for which the “Hypothermia 0.3 mg/kg” value was 0 and the “Hypothermia 3 mg/kg” value turned out to be 56.
Turning to `O=C(NCc1ccco1)c1ccc2c(c1)N=C(c1cccc(F)c1)c1ccccc1S2` [drawing 1631], the “Hypothermia 3 mg/kg” value stood at 21.
As for `CC(C)CNC(=O)c1ccc2c(c1)N=C(c1ccc(Cl)cn1)c1ccc(F)cc1S2` [drawing 1625], the “Hypothermia 3 mg/kg” value is recorded as 27.
As to `COc1cccc(C2=Nc3cc(C(=O)NCCCC(F)(F)F)ccc3Sc3ccccc32)n1` [drawing 1566], the “Hypothermia 3 mg/kg” value is listed as 46.
As for `CC(C)CNC(=O)c1ccc2c(c1)N=C(c1ccc(Cl)c(Cl)c1)c1ccccc1S2` [drawing 1570], the “Hypothermia 3 mg/kg” value is 40.
Regarding `CC(C)CNC(=O)c1ccc2c(c1)N=C(c1ccc(Cl)cc1)c1ccccc1S2` [drawing 1634], the “Hypothermia 0.3 mg/kg” value came to 25 and the “Hypothermia 3 mg/kg” value is 79.
Regarding `CCCCNC(=O)c1ccc2c(c1)N=C(c1ccc(Cl)cn1)c1cc(F)ccc1S2` [drawing 1627], the “Hypothermia 3 mg/kg” value is 8.
For `O=C(NCc1cccc(Cl)c1)c1ccc2c(c1)N=C(c1ccc(F)cc1)c1ccccc1S2` [drawing 1618], the “Hypothermia 0.3 mg/kg” value worked out at 16 and the “Hypothermia 3 mg/kg” value was 50.
Regarding `O=C(NCCCC(F)(F)F)c1ccc2c(c1)N=C(c1ccc(Cl)s1)c1ccccc1S2` [drawing 1554], the “Hypothermia 0.3 mg/kg” value was 11, the “Hypothermia 3 mg/kg” value is reported as 73 and the Hypothermia ID50 worked out at 1.7 mg/kg.
With `O=C(NN1CCCCC1)c1ccc2c(c1)N=C(c1ccc(Cl)s1)c1ccccc1S2` [drawing 1561], the “Hypothermia 3 mg/kg” value came to 42.
With `O=C(NCc1cccnc1)c1ccc2c(c1)N=C(c1ccc(Cl)c(Cl)c1)c1ccccc1S2` [drawing 1565], the “Hypothermia 0.3 mg/kg” value amounted to 1 and the “Hypothermia 3 mg/kg” value is 19.
Turning to `CCCCNC(=O)c1ccc2c(c1)N=C(c1ccc(Cl)cc1)c1ccc(Cl)cc1S2` [drawing 1617], the “Hypothermia 3 mg/kg” value came out at 30.
On to `CCCCNC(=O)c1ccc2c(c1)N=C(c1ccc(F)c(Cl)c1)c1ccccc1S2`, for which the “Hypothermia 3 mg/kg” value was 94.
In the case of `Cc1ccc(CNC(=O)c2ccc3c(c2)N=C(c2ccc(Cl)s2)c2ccccc2S3)o1` [drawing 1594], the “Hypothermia 3 mg/kg” value is given as 16.
For the compound `CCCCNC(=O)C1=C/C=C/Sc2cc(F)ccc2/C(c2ccc(Cl)cn2)=N\C=C\1`, the “Hypothermia 3 mg/kg” value came out at 4.
`O=C(NCCCC(F)(F)F)c1ccc2c(c1)N=C(c1ccsc1)c1ccccc1S2` [drawing 1600]: the “Hypothermia 0.3 mg/kg” value amounted to 32.
Regarding `CCCCNC(=O)c1cnc2c(n1)N=C(c1ccccc1)c1ccccc1S2` [drawing 1607], the “Hypothermia 3 mg/kg” value was found to be 7.
For the compound `CCCCNC(=O)c1ccc2c(c1)N=C(c1ccc(Cl)cc1)c1ccccc1S2` [drawing 1560], the “Hypothermia 0.3 mg/kg” value came out at 15, the “Hypothermia 3 mg/kg” value is listed as 82 and the Hypothermia ID50 stood at 0.79 mg/kg.
For `O=C(NN1CCCCC1)c1ccc2c(c1)N=C(c1ccc(F)cc1)c1ccccc1S2` [drawing 1582], in that order: 7, 87 and 0.96 mg/kg.
Regarding `O=C(NCCCC(F)(F)F)c1ccc2c(c1)N=C(c1cccc(F)c1)c1ccccc1S2` [drawing 1606], the “Hypothermia 0.3 mg/kg” value turned out to be 11.
As for `CCCCNC(=O)c1ccc2c(c1)N=C(c1ccc(Cl)cn1)c1ccccc1S2` [drawing 1595], the “Hypothermia 3 mg/kg” value is on record as 53.
On to `CCCCNC(=O)c1ccc2c(c1)N=C(c1cccc(F)c1)c1ccccc1S2` [drawing 1593], for which the “Hypothermia 3 mg/kg” value is given as 36.
Take `O=C(NCCCC(F)(F)F)c1ccc2c(c1)N=C(c1ccc(Cl)cc1F)c1ccccc1S2` [drawing 1552]: the “Hypothermia 0.3 mg/kg” value turned out to be 24, the “Hypothermia 3 mg/kg” value worked out at 55 and the Hypothermia ID50 is 1.3 mg/kg.
With `O=C(NCCc1cccnc1)c1ccc2c(c1)N=C(c1ccc(Cl)c(Cl)c1)c1ccccc1S2` [drawing 1569], the “Hypothermia 3 mg/kg” value was 41.
On to `COc1cccc(C2=Nc3cc(C(=O)NC4CCC(F)(F)CC4)ccc3Sc3ccccc32)n1` [drawing 1572], for which the “Hypothermia 3 mg/kg” value worked out at 19.
As for `O=C(NCc1ccccn1)c1ccc2c(c1)N=C(c1ccc(Cl)cc1)c1ccccc1S2` [drawing 1637], the “Hypothermia 3 mg/kg” value came to 42.
`O=C(NCCC(F)(F)F)c1ccc2c(c1)N=C(c1ccc(Cl)s1)c1ccccc1S2` [drawing 1624]: the “Hypothermia 3 mg/kg” value worked out at 37.
For `O=C(NCc1cccs1)c1ccc2c(c1)N=C(c1ccc(F)cc1)c1ccccc1S2` [drawing 1558], the “Hypothermia 0.3 mg/kg” value is 19, the “Hypothermia 3 mg/kg” value came out at 90 and the Hypothermia ID50 was found to be 1 mg/kg.
Take `O=C(NN1CCCCCC1)c1ccc2c(c1)N=C(c1cccc(F)c1)c1ccccc1S2` [drawing 1590]: the “Hypothermia 0.3 mg/kg” value came to 21, the “Hypothermia 3 mg/kg” value worked out at 85 and the Hypothermia ID50 is 0.93 mg/kg.
Regarding `CC(C)CNC(=O)c1ccc2c(c1)N=C(c1ccc(Cl)cc1)c1ccc(F)cc1S2` [drawing 1556], the “Hypothermia 3 mg/kg” value is 41.
Take `O=C(NN1CCCCCC1)c1ccc2c(c1)N=C(c1cccc(Cl)c1)c1ccccc1S2` [drawing 1586]: the “Hypothermia 0.3 mg/kg” value is given as −27, the “Hypothermia 3 mg/kg” value is 86 and the Hypothermia ID50 was found to be 1.14 mg/kg.
Turning to `O=C(NC1CCCCC1)c1ccc2c(c1)N=C(c1ccc(Cl)cc1)c1ccccc1S2` [drawing 1603], the “Hypothermia 3 mg/kg” value was 60.
With `O=C(NCCc1ccncc1)c1ccc2c(c1)N=C(c1ccc(Cl)c(Cl)c1)c1ccccc1S2` [drawing 1591], the “Hypothermia 3 mg/kg” value was determined as 41.
Take `CC(C)CNC(=O)c1ccc2c(c1)N=C(c1cccc(Cl)c1)c1ccccc1S2` [drawing 1646]: the “Hypothermia 3 mg/kg” value amounted to 54.
Turning to `O=C(NN1CCCCC1)c1ccc2c(c1)N=C(c1ccc(Cl)cn1)c1ccccc1S2` [drawing 1651], the “Hypothermia 3 mg/kg” value is reported as 57.
On the same count and under the same terms, the same measure for `CC(C)CNC(=O)c1ccc2c(c1)N=C(c1ccc(Cl)s1)c1ccc(F)cc1S2` [drawing 1644]: 12; for `O=C(NCc1cccs1)c1ccc2c(c1)N=C(c1cccc(F)c1)c1ccccc1S2` [drawing 1559]: 17.
Turning to `CC(C)CNC(=O)c1ccc2c(c1)N=C(c1ccc(F)cc1)c1ccccc1S2` [drawing 1636], the “Hypothermia 0.3 mg/kg” value turned out to be 14 and the “Hypothermia 3 mg/kg” value worked out at 53.
With `O=C(NCCc1cccnc1)c1ccc2c(c1)N=C(c1ccc(Cl)s1)c1ccccc1S2` [drawing 1585], the “Hypothermia 0.3 mg/kg” value is listed as −14, the “Hypothermia 3 mg/kg” value is reported as 76 and the Hypothermia ID50 worked out at 1.7 mg/kg.
For the compound `CCCCNC(=O)c1ccc2c(c1)N=C(c1ccc(F)cn1)c1ccccc1S2` [drawing 1629], the “Hypothermia 3 mg/kg” value was 54.
Turning to `CC(C)CCNC(=O)c1ccc2c(c1)N=C(c1cccc(F)c1)c1ccccc1S2` [drawing 1602], the “Hypothermia 0.3 mg/kg” value is listed as 0 and the “Hypothermia 3 mg/kg” value is listed as 67.
`Cc1ccsc1C1=Nc2cc(C(=O)NCc3cccs3)ccc2Sc2ccccc21` [drawing 1642]: the “Hypothermia 3 mg/kg” value was found to be 25.
Consider `CCCCNC(=O)c1ccc2c(c1)N=C(c1ccc(Br)cn1)c1ccccc1S2` [drawing 1555], for which the “Hypothermia 3 mg/kg” value stood at 80.
Same read-out and setting: the same measure for `O=C(NCc1cccs1)c1ccc2c(c1)N=C(c1ccc(Cl)s1)c1ccccc1S2` [drawing 1612]: 47.
On to `O=C(NC1CCC(F)(F)CC1)c1ccc2c(c1)N=C(c1cccc(Cl)c1)c1ccccc1S2` [drawing 1604], for which the “Hypothermia 0.3 mg/kg” value was found to be 5.
Regarding `O=C(NCc1ccco1)c1ccc2c(c1)N=C(c1cccc(Cl)c1)c1ccccc1S2` [drawing 1581], the “Hypothermia 0.3 mg/kg” value was found to be 24, the “Hypothermia 3 mg/kg” value worked out at 67 and the Hypothermia ID50 amounted to 1 mg/kg.
On to `O=C(NCc1cccnc1)c1ccc2c(c1)N=C(c1ccc(Cl)cc1)c1ccccc1S2` [drawing 1633], for which the “Hypothermia 3 mg/kg” value is recorded as 27.
Turning to `O=C(NCc1cccs1)c1ccc2c(c1)N=C(c1ccccc1F)c1ccccc1S2` [drawing 1623], the “Hypothermia 3 mg/kg” value is 10.
As for `CCCCNC(=O)c1ccc2c(c1)N=C(c1cccc(Cl)c1)c1cc(F)ccc1S2` [drawing 1579], the “Hypothermia 3 mg/kg” value is reported as 8.
On the same count and under the same terms, the same measure for `O=C(NCc1ccccc1)c1ccc2c(c1)N=C(c1ccc(Cl)cc1)c1ccccc1S2` [drawing 1648]: 68.
